From ChEMBL document CHEMBL4507319 (2021)

Tests used:
[1] = biological target: Serine-protein kinase ATM (Homo sapiens) (UniProt Q13315); test: ATM(h) Eurofins kinase panel; settings: Compound concentration 1.0 uM
[2] = tested on: IMR-5/75; test: IMR-5/75 cell line Proliferation assay; format: functional, Homo sapiens; settings: time 6 day
[3] = biological target: T1, Ephrin type-B receptor 2 (Homo sapiens) (UniProt P29323); test: EphB2(h) Eurofins kinase panel; settings: Compound concentration 1.0 uM
T1 sequence (whole entry): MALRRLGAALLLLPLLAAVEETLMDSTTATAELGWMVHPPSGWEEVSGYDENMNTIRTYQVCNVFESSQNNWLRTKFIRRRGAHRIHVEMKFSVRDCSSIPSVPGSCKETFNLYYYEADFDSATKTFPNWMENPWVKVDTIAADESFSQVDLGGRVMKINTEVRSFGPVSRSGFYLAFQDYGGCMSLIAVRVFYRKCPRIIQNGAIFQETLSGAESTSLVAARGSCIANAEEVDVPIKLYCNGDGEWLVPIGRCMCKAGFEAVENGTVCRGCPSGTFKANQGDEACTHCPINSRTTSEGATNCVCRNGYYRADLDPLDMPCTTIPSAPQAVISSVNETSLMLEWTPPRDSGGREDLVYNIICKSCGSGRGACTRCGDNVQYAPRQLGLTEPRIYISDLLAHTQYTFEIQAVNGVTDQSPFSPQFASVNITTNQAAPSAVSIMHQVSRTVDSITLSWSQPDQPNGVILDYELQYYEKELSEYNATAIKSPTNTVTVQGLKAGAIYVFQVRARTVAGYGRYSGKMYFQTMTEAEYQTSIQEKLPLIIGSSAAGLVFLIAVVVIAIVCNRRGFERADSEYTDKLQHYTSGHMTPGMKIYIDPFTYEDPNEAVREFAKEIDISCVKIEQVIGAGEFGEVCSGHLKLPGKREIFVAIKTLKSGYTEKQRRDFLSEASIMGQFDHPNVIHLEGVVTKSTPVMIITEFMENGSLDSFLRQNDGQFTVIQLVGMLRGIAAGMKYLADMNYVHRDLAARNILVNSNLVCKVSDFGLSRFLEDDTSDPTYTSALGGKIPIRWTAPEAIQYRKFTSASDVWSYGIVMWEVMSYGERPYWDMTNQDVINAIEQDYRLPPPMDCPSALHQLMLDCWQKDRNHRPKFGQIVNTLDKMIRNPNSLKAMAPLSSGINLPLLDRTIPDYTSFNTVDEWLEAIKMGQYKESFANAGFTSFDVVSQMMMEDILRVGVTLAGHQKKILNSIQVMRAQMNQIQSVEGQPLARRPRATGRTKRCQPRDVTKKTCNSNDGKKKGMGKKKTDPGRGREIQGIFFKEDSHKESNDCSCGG

[4] = biological target: Dual specificity protein kinase CLK4 (Homo sapiens) (UniProt Q9HAZ1); test: CLK4(h) Eurofins kinase panel; settings: Compound concentration 1.0 uM
Chain of Dual specificity protein kinase CLK4 (Homo sapiens) (Q9HAZ1 whole entry, looked up): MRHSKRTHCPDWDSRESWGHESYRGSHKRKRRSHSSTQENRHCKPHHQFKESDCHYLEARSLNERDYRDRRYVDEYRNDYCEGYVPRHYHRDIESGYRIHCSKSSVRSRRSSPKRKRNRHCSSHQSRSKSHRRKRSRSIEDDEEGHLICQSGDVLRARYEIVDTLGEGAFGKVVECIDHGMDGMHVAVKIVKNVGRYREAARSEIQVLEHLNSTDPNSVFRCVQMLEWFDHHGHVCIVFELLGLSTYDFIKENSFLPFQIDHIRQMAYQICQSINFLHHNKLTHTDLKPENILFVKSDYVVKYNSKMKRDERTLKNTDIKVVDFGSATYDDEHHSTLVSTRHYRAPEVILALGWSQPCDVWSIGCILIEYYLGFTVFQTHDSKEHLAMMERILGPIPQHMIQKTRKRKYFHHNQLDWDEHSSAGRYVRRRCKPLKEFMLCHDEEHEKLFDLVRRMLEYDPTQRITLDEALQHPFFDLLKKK

[5] = biological target: T2, G protein-coupled receptor kinase 3 (Homo sapiens) (UniProt P35626); test: GRK3(h) Eurofins kinase panel; settings: Compound concentration 1.0 uM
T2 sequence (whole entry): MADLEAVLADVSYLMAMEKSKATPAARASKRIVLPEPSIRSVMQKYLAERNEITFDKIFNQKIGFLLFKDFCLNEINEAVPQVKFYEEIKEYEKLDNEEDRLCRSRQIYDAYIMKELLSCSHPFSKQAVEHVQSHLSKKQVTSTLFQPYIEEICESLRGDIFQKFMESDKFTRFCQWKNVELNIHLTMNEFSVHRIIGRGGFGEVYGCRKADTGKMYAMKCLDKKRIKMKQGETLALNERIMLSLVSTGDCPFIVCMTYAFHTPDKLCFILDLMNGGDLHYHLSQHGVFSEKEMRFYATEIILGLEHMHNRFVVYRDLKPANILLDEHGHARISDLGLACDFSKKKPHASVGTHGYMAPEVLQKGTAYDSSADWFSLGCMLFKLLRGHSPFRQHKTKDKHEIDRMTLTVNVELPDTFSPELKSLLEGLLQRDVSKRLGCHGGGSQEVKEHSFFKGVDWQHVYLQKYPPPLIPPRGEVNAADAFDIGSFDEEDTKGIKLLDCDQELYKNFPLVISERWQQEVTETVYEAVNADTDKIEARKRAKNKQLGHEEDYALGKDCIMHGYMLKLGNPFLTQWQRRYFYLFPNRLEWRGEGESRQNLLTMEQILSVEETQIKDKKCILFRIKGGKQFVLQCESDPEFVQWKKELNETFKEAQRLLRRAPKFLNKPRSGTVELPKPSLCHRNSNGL

[6] = biological target: Calcium/calmodulin-dependent protein kinase type II subunit delta (Homo sapiens) (UniProt Q13557); test: CaMKIIdelta(h) Eurofins kinase panel; settings: Compound concentration 1.0 uM
Chain of Calcium/calmodulin-dependent protein kinase type II subunit delta (Homo sapiens) (Q13557 whole entry): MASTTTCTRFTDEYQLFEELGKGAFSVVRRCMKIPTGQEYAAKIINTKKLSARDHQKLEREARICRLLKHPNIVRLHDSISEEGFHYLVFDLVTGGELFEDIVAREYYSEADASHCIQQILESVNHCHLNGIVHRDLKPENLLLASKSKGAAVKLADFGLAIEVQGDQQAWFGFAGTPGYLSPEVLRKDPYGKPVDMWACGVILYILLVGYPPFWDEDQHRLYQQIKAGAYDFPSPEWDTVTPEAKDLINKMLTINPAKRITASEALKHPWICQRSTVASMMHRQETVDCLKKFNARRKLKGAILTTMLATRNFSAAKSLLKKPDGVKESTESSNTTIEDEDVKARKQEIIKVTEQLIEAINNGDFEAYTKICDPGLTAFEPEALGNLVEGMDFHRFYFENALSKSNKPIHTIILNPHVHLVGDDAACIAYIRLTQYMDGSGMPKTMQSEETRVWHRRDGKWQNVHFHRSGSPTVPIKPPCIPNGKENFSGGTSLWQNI

[7] = tested on: MDA-MB-231; test: MDA-MB- 231 cell line Proliferation assay; format: functional, Homo sapiens; settings: time 3 day
[8] = biological target: T3, Calcium/calmodulin-dependent protein kinase type IV (Homo sapiens) (UniProt Q16566); test: CaMKIV(h) Eurofins kinase panel; settings: Compound concentration 1.0 uM
T3 sequence (whole entry): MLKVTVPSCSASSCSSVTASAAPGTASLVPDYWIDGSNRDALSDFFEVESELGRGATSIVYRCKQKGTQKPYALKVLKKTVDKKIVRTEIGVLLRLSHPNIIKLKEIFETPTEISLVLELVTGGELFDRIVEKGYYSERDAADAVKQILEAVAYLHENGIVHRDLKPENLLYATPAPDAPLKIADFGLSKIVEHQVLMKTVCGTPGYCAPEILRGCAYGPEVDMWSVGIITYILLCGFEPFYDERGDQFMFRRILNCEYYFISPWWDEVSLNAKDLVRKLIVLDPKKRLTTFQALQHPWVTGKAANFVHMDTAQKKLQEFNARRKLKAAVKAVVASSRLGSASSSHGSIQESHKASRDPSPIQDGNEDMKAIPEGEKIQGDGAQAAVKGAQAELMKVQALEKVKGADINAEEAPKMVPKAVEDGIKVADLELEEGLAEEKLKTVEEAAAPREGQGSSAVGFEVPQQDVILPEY

[9] = biological target: T4, Serine/threonine-protein kinase Sgk3 (Homo sapiens) (UniProt Q96BR1); test: SGK3(h) Eurofins kinase panel; settings: Compound concentration 1.0 uM
T4 sequence (whole entry): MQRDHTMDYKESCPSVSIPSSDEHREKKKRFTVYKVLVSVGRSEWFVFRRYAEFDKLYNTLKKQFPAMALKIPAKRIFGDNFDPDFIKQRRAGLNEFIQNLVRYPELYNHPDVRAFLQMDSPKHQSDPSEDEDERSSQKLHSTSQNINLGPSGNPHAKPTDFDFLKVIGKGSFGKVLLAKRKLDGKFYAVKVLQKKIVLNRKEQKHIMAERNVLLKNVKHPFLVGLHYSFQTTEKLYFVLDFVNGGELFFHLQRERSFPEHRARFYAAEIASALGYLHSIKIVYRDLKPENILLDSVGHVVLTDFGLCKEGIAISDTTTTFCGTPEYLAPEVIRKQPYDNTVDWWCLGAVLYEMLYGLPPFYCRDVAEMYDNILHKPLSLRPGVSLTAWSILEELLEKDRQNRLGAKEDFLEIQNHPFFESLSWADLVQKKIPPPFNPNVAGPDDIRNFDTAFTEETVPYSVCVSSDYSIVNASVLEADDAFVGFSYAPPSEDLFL

[10] = biological target: Serine/threonine-protein kinase 10 (Homo sapiens) (UniProt O94804); test: LOK(h) Eurofins kinase panel; settings: Compound concentration 1.0 uM
Chain of Serine/threonine-protein kinase 10 (Homo sapiens) (O94804 whole entry, looked up): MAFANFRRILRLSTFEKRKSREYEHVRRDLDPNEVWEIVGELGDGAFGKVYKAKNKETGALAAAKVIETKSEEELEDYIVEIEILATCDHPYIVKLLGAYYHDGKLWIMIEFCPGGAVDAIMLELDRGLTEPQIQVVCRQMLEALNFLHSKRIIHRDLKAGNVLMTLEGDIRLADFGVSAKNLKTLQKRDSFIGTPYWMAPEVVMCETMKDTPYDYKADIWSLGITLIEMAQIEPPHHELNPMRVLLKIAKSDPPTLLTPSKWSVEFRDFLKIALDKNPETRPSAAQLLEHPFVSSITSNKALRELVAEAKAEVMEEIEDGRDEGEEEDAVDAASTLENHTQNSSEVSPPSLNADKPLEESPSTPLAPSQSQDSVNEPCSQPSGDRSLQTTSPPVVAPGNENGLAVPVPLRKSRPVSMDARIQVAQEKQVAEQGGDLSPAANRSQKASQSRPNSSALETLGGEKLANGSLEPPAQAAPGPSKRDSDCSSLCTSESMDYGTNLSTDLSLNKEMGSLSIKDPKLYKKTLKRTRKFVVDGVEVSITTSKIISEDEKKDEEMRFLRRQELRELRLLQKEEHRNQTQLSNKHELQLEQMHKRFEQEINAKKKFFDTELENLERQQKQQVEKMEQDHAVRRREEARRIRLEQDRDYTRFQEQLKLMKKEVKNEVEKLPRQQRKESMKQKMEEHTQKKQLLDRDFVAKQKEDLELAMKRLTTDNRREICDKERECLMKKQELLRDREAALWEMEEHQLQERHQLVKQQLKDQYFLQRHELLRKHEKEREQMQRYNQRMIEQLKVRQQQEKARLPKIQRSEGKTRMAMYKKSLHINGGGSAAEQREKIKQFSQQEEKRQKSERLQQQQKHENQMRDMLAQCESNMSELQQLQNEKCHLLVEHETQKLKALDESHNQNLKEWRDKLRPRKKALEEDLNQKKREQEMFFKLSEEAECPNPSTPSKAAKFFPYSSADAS

Chain of Serine-protein kinase ATM (Homo sapiens) (Q13315 whole entry): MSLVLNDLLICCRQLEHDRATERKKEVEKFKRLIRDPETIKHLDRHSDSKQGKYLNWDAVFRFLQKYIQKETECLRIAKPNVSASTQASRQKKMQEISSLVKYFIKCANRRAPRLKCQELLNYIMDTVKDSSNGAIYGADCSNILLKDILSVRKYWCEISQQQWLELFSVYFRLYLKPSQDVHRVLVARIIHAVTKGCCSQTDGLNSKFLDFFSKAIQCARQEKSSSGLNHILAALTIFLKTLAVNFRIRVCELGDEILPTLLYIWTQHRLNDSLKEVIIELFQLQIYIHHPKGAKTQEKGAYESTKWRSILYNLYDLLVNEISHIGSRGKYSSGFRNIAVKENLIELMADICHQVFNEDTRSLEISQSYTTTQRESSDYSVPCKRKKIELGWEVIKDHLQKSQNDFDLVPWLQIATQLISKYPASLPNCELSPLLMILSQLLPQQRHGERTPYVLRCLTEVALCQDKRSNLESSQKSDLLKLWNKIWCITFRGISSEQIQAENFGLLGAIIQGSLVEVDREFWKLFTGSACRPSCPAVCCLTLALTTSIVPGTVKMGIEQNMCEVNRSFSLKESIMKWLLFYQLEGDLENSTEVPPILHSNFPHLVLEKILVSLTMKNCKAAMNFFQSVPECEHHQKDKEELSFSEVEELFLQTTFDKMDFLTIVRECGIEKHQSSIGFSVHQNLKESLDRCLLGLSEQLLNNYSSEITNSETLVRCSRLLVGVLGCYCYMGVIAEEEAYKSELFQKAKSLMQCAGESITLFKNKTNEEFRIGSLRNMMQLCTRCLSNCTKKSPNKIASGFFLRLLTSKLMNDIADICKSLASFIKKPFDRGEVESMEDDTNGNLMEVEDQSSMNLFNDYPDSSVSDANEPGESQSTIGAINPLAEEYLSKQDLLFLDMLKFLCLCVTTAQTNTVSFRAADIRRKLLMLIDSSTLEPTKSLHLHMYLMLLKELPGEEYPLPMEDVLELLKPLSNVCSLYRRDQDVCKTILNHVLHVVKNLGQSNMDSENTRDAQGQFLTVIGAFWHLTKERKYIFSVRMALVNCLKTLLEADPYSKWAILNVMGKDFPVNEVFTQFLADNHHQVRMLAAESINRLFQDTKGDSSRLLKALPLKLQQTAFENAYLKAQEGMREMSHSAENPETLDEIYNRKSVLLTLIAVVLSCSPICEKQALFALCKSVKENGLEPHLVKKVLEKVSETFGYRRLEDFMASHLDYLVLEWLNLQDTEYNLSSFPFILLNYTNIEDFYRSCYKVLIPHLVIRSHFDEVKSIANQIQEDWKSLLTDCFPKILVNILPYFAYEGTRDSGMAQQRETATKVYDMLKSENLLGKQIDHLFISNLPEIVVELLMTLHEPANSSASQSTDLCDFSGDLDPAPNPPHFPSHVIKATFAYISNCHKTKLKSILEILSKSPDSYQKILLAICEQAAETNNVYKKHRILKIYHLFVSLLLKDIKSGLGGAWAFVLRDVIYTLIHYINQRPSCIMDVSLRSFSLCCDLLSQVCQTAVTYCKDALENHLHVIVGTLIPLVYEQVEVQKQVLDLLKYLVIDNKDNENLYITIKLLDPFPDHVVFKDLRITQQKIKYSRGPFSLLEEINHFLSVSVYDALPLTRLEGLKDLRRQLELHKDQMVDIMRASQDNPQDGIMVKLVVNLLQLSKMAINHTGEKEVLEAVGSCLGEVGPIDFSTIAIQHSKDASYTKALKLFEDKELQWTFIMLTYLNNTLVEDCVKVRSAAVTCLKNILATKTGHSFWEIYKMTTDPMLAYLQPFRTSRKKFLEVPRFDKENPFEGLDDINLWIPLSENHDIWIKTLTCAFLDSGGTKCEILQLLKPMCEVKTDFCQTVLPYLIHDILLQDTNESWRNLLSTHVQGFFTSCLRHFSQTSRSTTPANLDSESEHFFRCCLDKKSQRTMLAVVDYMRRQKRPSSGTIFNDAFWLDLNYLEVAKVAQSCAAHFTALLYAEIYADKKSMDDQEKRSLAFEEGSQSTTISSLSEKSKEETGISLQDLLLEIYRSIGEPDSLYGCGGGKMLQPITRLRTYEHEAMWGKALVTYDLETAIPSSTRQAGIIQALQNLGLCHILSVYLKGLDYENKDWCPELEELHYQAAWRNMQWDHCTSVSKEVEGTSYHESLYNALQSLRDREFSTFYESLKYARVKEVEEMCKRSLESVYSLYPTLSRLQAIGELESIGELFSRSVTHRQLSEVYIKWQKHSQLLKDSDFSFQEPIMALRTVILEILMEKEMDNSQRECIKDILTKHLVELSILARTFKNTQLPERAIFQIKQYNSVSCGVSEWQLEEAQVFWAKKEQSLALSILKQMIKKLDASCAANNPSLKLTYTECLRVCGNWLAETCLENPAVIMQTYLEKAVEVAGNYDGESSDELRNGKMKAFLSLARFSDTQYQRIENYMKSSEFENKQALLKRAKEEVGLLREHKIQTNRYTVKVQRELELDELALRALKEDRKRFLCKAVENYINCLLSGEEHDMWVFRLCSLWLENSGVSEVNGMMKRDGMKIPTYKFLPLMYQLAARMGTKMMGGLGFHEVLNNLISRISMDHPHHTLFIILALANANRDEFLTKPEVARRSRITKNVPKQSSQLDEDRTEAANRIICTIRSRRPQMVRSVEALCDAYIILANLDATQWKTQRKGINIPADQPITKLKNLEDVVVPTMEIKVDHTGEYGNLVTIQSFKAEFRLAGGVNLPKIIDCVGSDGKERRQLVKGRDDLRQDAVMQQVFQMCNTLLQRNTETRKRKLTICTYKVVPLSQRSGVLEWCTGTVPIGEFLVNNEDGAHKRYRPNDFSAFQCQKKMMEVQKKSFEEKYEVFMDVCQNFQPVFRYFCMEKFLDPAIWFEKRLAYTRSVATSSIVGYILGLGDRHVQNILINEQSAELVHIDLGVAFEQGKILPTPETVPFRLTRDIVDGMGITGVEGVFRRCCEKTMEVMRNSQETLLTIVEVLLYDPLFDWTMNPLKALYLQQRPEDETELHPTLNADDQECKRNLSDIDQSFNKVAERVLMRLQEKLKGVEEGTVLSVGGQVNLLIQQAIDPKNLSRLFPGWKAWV

## CCc1ccccc1C(=O)Nc1n[nH]c2c(C)c(F)c(C3C(C#N)=C(C)N(C)C(C)=C3C#N)cc12 [BAY-3827]
[1]
  % residual kinase activity: 99%
[2]
  Cell Proliferation IC50: 21.3 µM
[3]
  % residual kinase activity: 98%
[4]
  % residual kinase activity: 104%
[5]
  % residual kinase activity: 106%
[6]
  % residual kinase activity: 75%
[7]
  Cell Proliferation IC50: >30 µM
[8]
  % residual kinase activity: 111%
[9]
  % residual kinase activity: 95%
[10]
  % residual kinase activity: 88%
